In publication PMC9268166, “Modeling of Anticancer Sulfonamide Derivatives Lipophilicity by Chemometric and Quantitative Structure-Retention Relationships Approaches” (Molecules, 2022):

Assays:
[1] = IAM chromatography (IAM-HPLC), IAM.PC.DD2 column; type: physicochemical; conditions: for logkIAM: logkIAM = 0.045 CHIIAM + 0.42; for logkIAM / CHI (CHIIAM), Table S2: pH 7.4; for CHIIAM: pH 7.4, 30 °C, acetonitrile gradient; for CHI (CHIIAM), Table S2: IAM chromatography, from mean of three retention times
Text: (§1) For this reason, the next step of our study concerns the characterization of investigated sulfonamide derivatives using a chromatographic approach. Generally, in RP-HPLC, the interactions between solutes and the stationary phase surface are mainly governed by lipophilicity. Consequently, RP-HPLC is the primary tool for assessing the lipophilicity of xenobiotics. […] Generally, the chemical character of target solutes determines interactions between the molecule and the stationary phase that may occur. Considering the large variety of RP-HPLC beds and differences in specific surface area, the energy of the sorbent’s intermolecular interactions between solutes and chemical structures, four different reversed-phase stationary phases and IAM column were investigated during this study. The lipophilicity index was presented as a logkw value, so the retention factor was extrapolated to the pure water after calculation using a protocol based on two gradient measurements and DryLab software.
(§2) Since the biomimetic chromatography experiments are carried out at physiological pH to compare obtained results, all chromatographic experiments have been carried out at pH 7.4. […] Consequently, the chromatography lipophilicity indices refer to the distribution coefficient (logD) values, which better reflect the lipophilicity of ionized substances under physiological conditions.
(§3) All HPLC experiments were carried out using a Prominence-1 LC-2030C 3D HPLC system (Shimadzu, Japan) equipped with a DAD detector and controlled by the LabSolution system (version 5.90 Shimadzu, Japan). The stock solutions of solutes were diluted to obtain 100 μg/mL concentrations, and the injected volume was 10 μL. During this study, six different columns in terms of chemical modification of stationary phases were used. Retention times (tR) of investigated sulfonamides were collected, and their detection in all systems was performed at the wavelength characteristic for each compound, summarized in Table S1. For all chromatography systems, analysis was carried out at 40 °C, except for IAM chromatography, in which oven temperature was set to 30 °C. The CHIIAM and CHI18 indices of the target sulfonamides derivatives were obtained using the protocol proposed by Valko and co-workers. C18 chromatography was performed on a Waters-C18 column (150 mm × 3.9 mm; 5.0 µm; Symmetry; USA), with a 1.5 mL/min flow rate. The mobile phase was ammonium acetate buffer (50 mM) at pH 7.4 and acetonitrile as an organic modifier. The linear gradient from 2 to 98% ACN was applied from 0 to 30 min. IAM chromatography was executed on an IAM.PC.DD2 column ([…] × 4.6 mm; 10.0 µm; Regis Technologies, Morton Grove, IL, USA) additionally equipped with an IAM guard column with the same flow rate of 1.5 mL/min. The mobile phase was sodium phosphate buffer (10 mM) at pH 7.4 and acetonitrile as the organic phase. The linear gradient from 0 to 85% was applied within 5.25 min.

[2] = C18 chromatography (RP-HPLC), chromatographic hydrophobicity index; type: physicochemical; conditions: for chromatographic logD: Waters Symmetry C18 column, CHI log D = 0.0525 CHIC18 − 1.467, pH 7.4; for CHIC18: pH 7.4, 40 °C, acetonitrile gradient
Text: as §1, §2, §3

[3] = C8 chromatography (RP-HPLC), logkw from two gradients with DryLab; type: physicochemical; conditions: for logkw, Table S4: C8 chromatography, pH 7.4, short and long gradient; for logkwC8: pH 7.4, 40 °C, retention factor extrapolated to 0% organic modifier
Text: as §1, §2
(§4) For C8, cyanopropyl, and phenyl chromatography, according to the assumption proposed by Snyder and co-workers, appropriate logkw values (i.e., the retention factor logk extrapolated to 0% organic modifier, as an alternative to logP) were obtained. […] Dwell volume for these HPLC systems was measured at 0.780 mL, whereas the obtained dead times for used HPLC columns were equal to 1.530 min, 1.252 min, and 2.335 min for C8, SB-CN, and UK-Phenyl, respectively. The mobile phase was ammonium acetate buffer (50 mM) at pH 7.4 and acetonitrile as an organic modifier in each system. C8 chromatography was performed on Unison UK-C8 column (150 × 2 mm; 3.0 µm. Imtakt; USA) with 0.3 mL/min flow rate. Analyses were carried out in linear gradient from 30 to 100% within 15 min in short gradient and 30 min in long gradient. The Agilent SB-CN column (150 × 4.6 mm; 3.5 µm; Zorbax; USA) was used for the cyanopropyl chromatography. The CN chromatography analyses were carried out in linear gradient from 20 to 100%, which was applied from 0 to 20 min in short gradient, and from 0 to 40 min in long gradient. The flow rate was 1.5 mL/min. The column Unison UK-Phenyl (150 × 2 mm; 3.0 µm; Imtakt; USA) was used to perform phenyl chromatography. The flow rate was set to 0.2 mL/min. The phenyl analyses were carried out in linear gradient from 40 to 100%, which was applied from 0 to 20 min in short gradient, and from 0 to 40 min in long gradient. Each HPLC analysis was run in triplicate; in Tables S2–S6, obtained retention times are listed, whereas representative chromatograms are shown in Figure 9.

[4] = Cyanopropyl (CN) chromatography, logkw from two gradients with DryLab; type: physicochemical; conditions: for logkw, Table S5: Cyanopropyl chromatography, pH 7.4, short and long gradient; for logkwCN: pH 7.4, 40 °C, retention factor extrapolated to 0% organic modifier
Text: as §1, §2, §4

[5] = Phenyl (Ph) chromatography, logkw from two gradients with DryLab; type: physicochemical; conditions: for logkw, Table S6: Phenyl chromatography, pH 7.4, short and long gradient; for logkwPh: pH 7.4, 40 °C, retention factor extrapolated to 0% organic modifier
Text: as §1, §2, §4

[6] = tested on: human colon cancer (HCT-116); parameters: method as in PMID 29772699, PMID 28122174, PMID 27338337, PMID 26506328; conditions: HCT-116 cell line; cited from earlier work

Cc1ccc(NC(=O)c2cc(S(=O)(=O)Nc3nncc(-c4ccc(C(F)(F)F)cc4)n3)c(SCc3ccccc3)cc2Cl)cc1 [Compound 17]
logkIAM [1]: 2.28 | CHIIAM [1]: 41.40 | chromatographic logD [2]: 3.25 | CHIC18 [2]: 89.90 | logkw, Table S4 [3]: 4.490 | logkwC8 [3]: 4.49 | logkw, Table S5 [4]: 2.544 | logkwCN [4]: 2.54 | logkw, Table S6 [5]: 4.540 | logkwPh [5]: 4.54 | pIC50 [6]: 4.15

Cc1cc(S(=O)(=O)Nc2nncc(-c3cccc(F)c3)n2)c(SCc2ccccc2)cc1Cl [Compound 13]
CHI (CHIIAM), Table S2 [1]: 37.1 | logkIAM [1]: 2.09 | chromatographic logD [2]: 2.62 | CHIC18 [2]: 77.90 | logkw, Table S4 [3]: 4.030 | logkwC8 [3]: 4.03 | logkw, Table S5 [4]: 2.037 | logkwCN [4]: 2.04 | logkw, Table S6 [5]: 3.532 | logkwPh [5]: 3.53 | pIC50 [6]: 4.12

COc1ccc(-c2cnnc(NS(=O)(=O)c3cc(C(=O)Nc4ccc(Cl)cc4)c(Cl)cc3SCc3ccccc3)n2)cc1 [Compound 16]
logkIAM [1]: 2.21 | CHIIAM [1]: 39.80 | chromatographic logD [2]: 3.04 | CHIC18 [2]: 85.90 | logkw, Table S4 [3]: 4.380 | logkwC8 [3]: 4.38 | logkw, Table S5 [4]: 2.471 | logkwCN [4]: 2.47 | logkw, Table S6 [5]: 4.476 | logkwPh [5]: 4.48 | pIC50 [6]: 4.12

Cc1cc(S(=O)(=O)Nc2nnc(-c3ccccc3)c(=O)[nH]2)c(SCc2cccc3ccccc23)cc1Cl [Compound 10]
CHI (CHIIAM), Table S2 [1]: 39.1 | logkIAM [1]: 2.18 | chromatographic logD [2]: 2.96 | CHIC18 [2]: 84.30 | logkw, Table S4 [3]: 4.211 | logkwC8 [3]: 4.21 | logkw, Table S5 [4]: 2.251 | logkwCN [4]: 2.25 | logkw, Table S6 [5]: 4.193 | logkwPh [5]: 4.19 | pIC50 [6]: 4.05

Cc1ccc2cccc(NS(=O)(=O)c3ccc(-n4cccc4)cc3)c2n1 [Compound 4]
CHI (CHIIAM), Table S2 [1]: 45.9 | logkIAM [1]: 2.49 | chromatographic logD [2]: 4.04 | CHIC18 [2]: 104.80 | logkw, Table S4 [3]: 4.898 | logkwC8 [3]: 4.90 | logkw, Table S5 [4]: 3.628 | logkwCN [4]: 3.63 | logkw, Table S6 [5]: 7.389 | logkwPh [5]: 7.39 | pIC50 [6]: 5.05

Cc1cc(S(=O)(=O)Nc2nnc(-c3ccccc3)c(=O)[nH]2)c(SCc2ccc(C(F)(F)F)cc2)cc1Cl [Compound 8]
CHI (CHIIAM), Table S2 [1]: 36.7 | logkIAM [1]: 2.07 | chromatographic logD [2]: 2.88 | CHIC18 [2]: 82.80 | logkw, Table S4 [3]: 4.206 | logkwC8 [3]: 4.21 | logkw, Table S5 [4]: 2.010 | logkwCN [4]: 2.01 | logkw, Table S6 [5]: 4.490 | logkwPh [5]: 4.49 | pIC50 [6]: 4.10

Cc1cc(S(=O)(=O)Nc2nnc(Cc3ccccc3[N+](=O)[O-])c(=O)[nH]2)c(SCc2cc3c(cc2Cl)OCO3)cc1Cl [Compound 12]
logkIAM [1]: 2.00 | CHIIAM [1]: 35.20 | chromatographic logD [2]: 2.7 | CHIC18 [2]: 79.30 | logkw, Table S4 [3]: 4.070 | logkwC8 [3]: 4.07 | logkw, Table S5 [4]: 2.162 | logkwCN [4]: 2.16 | logkw, Table S6 [5]: 3.897 | logkwPh [5]: 3.90 | pIC50 [6]: 4.06

COc1ccc(-c2cnnc(NS(=O)(=O)c3cc(C)c(Cl)cc3SCc3cccc4ccccc34)n2)cc1 [Compound 23]
CHI (CHIIAM), Table S2 [1]: 41.1 | logkIAM [1]: 2.27 | chromatographic logD [2]: 3.05 | CHIC18 [2]: 86.10 | logkw, Table S4 [3]: 4.120 | logkwC8 [3]: 4.12 | logkw, Table S5 [4]: 2.478 | logkwCN [4]: 2.48 | logkw, Table S6 [5]: 4.401 | logkwPh [5]: 4.40 | pIC50 [6]: 4.42

Cc1cc(S(=O)(=O)Nc2nncc(-c3ccc(C(F)(F)F)cc3)n2)c(SCc2ccc(C(F)(F)F)cc2)cc1Cl [Compound 21]
logkIAM [1]: 2.28 | CHIIAM [1]: 41.30 | chromatographic logD [2]: 3.34 | CHIC18 [2]: 91.60 | logkw, Table S4 [3]: 4.440 | logkwC8 [3]: 4.44 | logkw, Table S5 [4]: 2.110 | logkwCN [4]: 2.11 | logkw, Table S6 [5]: 4.480 | logkwPh [5]: 4.48 | pIC50 [6]: 4.29

COc1ccc(NC(=O)c2cc(S(=O)(=O)Nc3nncc(-c4ccc(OC)cc4)n3)c(SCc3ccccc3)cc2Cl)cc1 [Compound 20]
logkIAM [1]: 1.99 | CHIIAM [1]: 34.90 | chromatographic logD [2]: 2.59 | CHIC18 [2]: 77.20 | logkw, Table S4 [3]: 4.020 | logkwC8 [3]: 4.02 | logkw, Table S5 [4]: 2.211 | logkwCN [4]: 2.21 | logkw, Table S6 [5]: 3.789 | logkwPh [5]: 3.79 | pIC50 [6]: 4.14

COc1cc(-c2cnnc(NS(=O)(=O)c3cc(C(=O)Nc4ccc(C)cc4)c(Cl)cc3SCc3ccccc3)n2)cc(OC)c1OC [Compound 19]
logkIAM [1]: 1.93 | CHIIAM [1]: 33.60 | chromatographic logD [2]: 2.72 | CHIC18 [2]: 79.70 | logkw, Table S4 [3]: 4.068 | logkwC8 [3]: 4.07 | logkw, Table S5 [4]: 2.216 | logkwCN [4]: 2.22 | logkw, Table S6 [5]: 3.967 | logkwPh [5]: 3.97 | pIC50 [6]: 4.12

O=C(Nc1ccc(Cl)cc1)c1cc(S(=O)(=O)Nc2nncc(-c3ccc(C(F)(F)F)cc3)n2)c(SCc2ccccc2)cc1Cl [Compound 15]
logkIAM [1]: 2.37 | CHIIAM [1]: 43.40 | chromatographic logD [2]: 3.39 | CHIC18 [2]: 92.50 | logkw, Table S4 [3]: 4.530 | logkwC8 [3]: 4.53 | logkw, Table S5 [4]: 2.642 | logkwCN [4]: 2.64 | logkw, Table S6 [5]: 5.074 | logkwPh [5]: 5.07 | pIC50 [6]: 4.19

Cc1cc(S(=O)(=O)Nc2nncc(-c3cccc(F)c3)n2)c(SCc2ccc(C(F)(F)F)cc2)cc1Cl [Compound 24]
CHI (CHIIAM), Table S2 [1]: 38.3 | logkIAM [1]: 2.14 | chromatographic logD [2]: 3.13 | CHIC18 [2]: 87.50 | logkw, Table S4 [3]: 4.256 | logkwC8 [3]: 4.26 | logkw, Table S5 [4]: 2.277 | logkwCN [4]: 2.28 | logkw, Table S6 [5]: 4.088 | logkwPh [5]: 4.09 | pIC50 [6]: 4.17
